Experiments:
MUC1 transcription = assay: Trypsin-induced MUC1 transcription compared with NE; type: cell-based
[1] = tested on: MUC1 protein in A549 cells
Experimental: Confluent A549 cells were incubated in the presence or absence of 5.0 μg/ml of actinomycin (AcD) or 10 μg/ml of cycloheximide (Chx) for 1 hr and either non-treated or treated for 24 hr with 100 nM of NE. MUC1 protein levels in cell lysates (A) and spent media (B) were measured by ELISA. Each bar represents the mean±SEM (n=3). […] (C) Aliquots of spent media obtained from confluent A549 cells were non-treated (0 hr) or treated for 24 hr with 100 nM NE or vehicle control and MUC1 levels in the spent media determined by ELISA. Each bar represents the mean±SEM (n=3).
A549 cells were seeded at 5.0×10^4 cells/well in 24-well plates in Dulbecco's Modified Eagle Medium (DMEM) containing 10% fetal bovine serum (FBS), 100 U/ml penicillin, and 100 μg/ml streptomycin (all from Invitrogen, Carlsbad, Calif.) and incubated at 37° C. in a humidified CO2 incubator. Confluent monolayers were washed with serum-free DMEM and treated with 100 nM (2.6 U/ml) NE or vehicle control (PBS) for 24 hr. In some experiments, the cells were pretreated for 1 hr with 5.0 μg/ml of actinomycin D or 10 μg/ml of cycloheximide prior to NE treatment. Following treatment, cell-conditioned media were collected, and the cells were washed with PBS and lysed with 500 μl/well of PBS containing 1.0% Triton X-100, 1.0% sodium deoxycholate, 1.0% protease inhibitor cocktail, and 2.0 mM phenylmethylsulfonyl fluoride (PMSF). Lysates and conditioned media were incubated for 20 min at 80° C. to inactivate residual NE, insoluble material removed by centrifugation at 14,000×g for 10 min at 4° C., and protein concentrations measured by the procedure of Bradford using bovine serum albumin as standard.
ELISA. A549 cell lysates or cell-conditioned culture media were centrifuged at 10,000×g for 10 min at 4° C., added in triplicate to 96-well ELISA plates (MaxiSorb™, Nalge Nunc, Rochester, N.Y.), and incubated overnight at 4° C. Wells were blocked for 1 hr at room temperature (about 22° C.) with PBS, pH 7.0, containing 10 mg/ml BSA and 50 mg/ml sucrose and washed with PBS containing 0.05% Tween 20 (PBS-T). The samples were reacted for 2 hr at room temperature with 200 μg/ml of primary MUC1 antibody (GP1.4), washed with PBS-T, reacted for 2 hr at room temperature with 200 μg/ml of secondary antibody (peroxidase-conjugated goat antimouse IgG) (KPL, Gaithersburg, Md.), and washed with PBS-T. Bound antibodies were detected with tetramethylbenzidine substrate (SureBlue™, KPL), the substrate reaction stopped with 1 N HCl, and absorbencies at 450 nm measured using a microplate spectrophotometer (Dexall, Gaithersburg, Md.).

MUC1 mRNA = assay: Effect of NE on MUC1 mRNA expression and stability in A549 cells (real time RT-PCR); type: cell-based, human
Experimental: Referring now to FIG. 11. […] MUC1 mRNA levels were measured by real time RT-PCR and normalized to GAPDH mRNA levels. Each data point represents the mean±SEM (n=3).
Effect of NE on MUC1 mRNA expression. A549 cells were seeded in DMEM plus 10% FBS in 24-well plates at 5.0×10^4 cells/well, cultured to confluence for 24 hr at 37° C., and treated for 24 hr with various concentrations of NE (0, 10, 25, 50, 100, or 150 nM) or vehicle control. […] At the end of each chase period, the cells were washed with PBS and MUC1 transcripts quantified by real time RT-PCR.
Real time RT-PCR. Total RNA was isolated using RNeasy (Qiagen, Valencia, Calif.) and 2.0 μg was reverse transcribed using the iScript cDNA Synthesis kit (BioRad, Hercules, Calif.) in a total volume of 20 μl. Real time PCR was carried out using the Taqman probes and iQ™ Supermix (BioRad) according to the manufacturer's instructions. Briefly, 2.0 μl of cDNA or control plasmid was used as template for amplification in the iCycler (BioRad) with 200 nM of MUC1 or GAPDH (internal control) primers and probes. […] The CT value was defined as the number of PCR cycles required for the specific fluorescence signal to exceed the detection threshold value set by the software installed in the iCycler. […] The levels of MUC1 and GAPDH mRNAs were calculated from the standard curves and the expression of MUC1 transcripts was normalized to GAPDH transcripts.

MUC1 promoter = assay: MUC1 promoter-luciferase reporter assay in A549 cells; details: MUC1-pGL2b-transfected A549 cells, 100 nM NE, 24 hr
MUC1 = assay: Degradation of MUC1 in spent medium aliquots by NE (ELISA); type: biochemical, human; details: spent medium of A549 cells, 100 nM NE, 24 hr
Experimental: To verify the ability of NE to degrade MUC1, aliquots of a spent medium sample containing MUC1 molecules were incubated for 24 hr in the presence of NE and the amounts of MUC1 measured by ELISA.

[2] = tested on: Sp1 binding to the −99/−90 segment of the MUC1 promoter; assay: EMSA of Sp1 binding to the MUC1 promoter segment; design: species or system human; details: A549 nuclear extracts, 100 nM NE 0-120 min
Experimental: Referring now to FIG. 16, NE enhances the binding of Sp1 to the −99/−90 segment in the MUC1 promoter. Confluent A549 cells were treated with vehicle control (A) or 100 nM NE (B) for 0, 10, 20, 30, 60, or 120 min. Cells were lysed and nuclear extracts were incubated with or without 100-fold molar excess of unlabeled probe, poly(dIdC) as a non-specific competitor, or Sp1 antibody for 30 min on ice, and then incubated with a [γ-^32P]-labeled oligonucleotide corresponding to the human MUC1 promoter between nucleotides −104 and −83. DNA-protein complexes were resolved on 4.5% polyacrylamide gels and analyzed by autoradiography.
Electrophoretic mobility shift assay (EMSA). Confluent A549 cells were treated with 100 nM NE for 0, 10, 20, 30, 60, or 120 min. Following treatment, nuclear extracts were prepared as previously described (31). […]
Protein concentrations were measured by the procedure of Bradford (8). […] The DNA-protein complexes were resolved on 4.5% polyacrylamide gels and analyzed by autoradiography as described in Lee et al. 2004, Differential expression of mu-opioid receptor gene in CXBK and B6 mice by Sp1, Mol Pharmacol 66: 1580-1584.

time of maximum Sp1 binding to the MUC1 promoter segment in the presence of NE [2] | Substance | activity in inducing MUC1 transcription relative to that of NE (MUC1 transcription) | MUC1 in spent media compared with the control group ([1]; A549 cells, 100 nM NE 24 hr, with or without AcD or Chx pretreatment) | increase of MUC1 levels in cell lysates compared with 24 hr control ([1]; confluent A549 cells, 100 nM NE, 24 hr) | effect on MUC1 mRNA stability (MUC1 mRNA; 100 nM NE 24 hr, chase with 5.0 μg/ml actinomycin D 0-24 hr) | MUC1 mRNA levels with increasing doses and time (MUC1 mRNA; NE 0-150 nM, real time RT-PCR) | MUC1 promoter luciferase activity compared with vehicle control (MUC1 promoter) | MUC1 remaining in spent medium aliquots after incubation with NE (MUC1)
 | Trypsin | less than 10% |  |  |  |  |  | 
60 min | neutrophil elastase |  | 45% | 33% | does not alter MUC1 mRNA stability | progressively higher MUC1 mRNA levels | significantly higher luciferase activity | no detectable amounts of MUC1

— patent US8298522B1, “Methods of modulating MUC1 expression to inhibit inflammation” (priority 2005, dated 2012)
